The source of these data is patent US20080009019A1, “HIGH THROUGHPUT METHOD FOR SCREENING CANDIDATE COMPOUNDS FOR BIOLOGICAL ACTIVITY” (SmithKline Beecham Corporation, priority 2001, published 2008).

What all share (type): cell-based
In experiment [1] the target is T1, MC1R (Homo sapiens, UniProt Q01726). The experiment in a line: Bead-based lawn assay, peptides photocleaved from beads in lawn of CHO-6CRE-luc+-MC1R cells. Also noted: expressed in transfected cells. Particulars: for response value at plateau compared with maximal response to [NDP]-α-MSH: 3-minute UV time point, FIG. 11B versus FIG. 11A; for UV exposure time point at which response began to plateau: 5 beads per peptide pushed into lawn, UV 365 nm for 0, 0.5, 1, 3, 10 minutes, FIG. 11B. The method, then:
Agonists for GPCRs were assayed using beads to which peptides or compounds are attached by a photolinker. The beads were either mixed in the agarose or were applied to the surface of the lawn. The attached compound or peptide was cleaved by exposure to UV light.
Cell culture and assay methods were as described in Example 1. Hexamer peptides were linked to 200 micrometer […]™ microsphere beads (polystyrene core with […]™ pegs—available from Rapp Polymere GmbH of Tubingen, Germany) by a photocleavable linker. Two peptides were tested for validation purposes: Peptide 1-Ac-NH-Ser-Val-dHis-dPhe-Arg-Trp (SEQ ID NO:1) and Peptide 2-Ac-NH-Val-Ala-dHis-dPhe-Arg-Tyr (SEQ ID NO:2). Beads were added to the agarose lawn either by pushing the bead into the agarose with forceps or by suspending the beads in the melted agarose/cell mixture. Peptides were cleaved from the beads by exposure to ultraviolet light using a UV lamp set at 365 nm wavelength (λ).
A time course of delivery of MC1R agonist peptides 1 and 2, which were linked to beads (described in methods), to a lawn of CHO-6CRE-luc^+-MC1R cells is shown in FIGS. 10A-10E. The peptides were cleaved from the beads by increasing the time of UV exposure. FIGS. 10A-10E depict UV exposure for 0, 0.5, 1, 3, and 10 minutes, respectively. A concentration-response curve for of [NDP]-α-MSH was run in row 1 on each lawn at the same concentrations as in FIG. 9. Five (5) beads each of peptide 1 and 2 were pushed into the agarose layer with forceps. Peptide 1 and 2 were on the left and right of each lawn, respectively.
FIG. 11A is a line graph representation of the average luminescence of the 5 beads at each time point. The response was calculated by subtracting the background z value for the lawn from the z value for each area to which the bead was applied. The magnitude of response is dictated by both the response of the reporter cell line and the amount of peptide that can be released from the beads. Both peptide 1 and 2 are full agonists for MC1R when tested in a well-based reporter assay so both peptides are capable of eliciting a response similar to [NDP]-α-MSH.

Experiment [2] concerns the target T1, MC1R. The experiment in a line: Well-based reporter assay.
Experiment [3] has as its target T2, corticotrophin releasing factor receptor (CRHR1) (Homo sapiens, UniProt P34998).
T2 construct: expressed in transfected cells
T2 sequence (P34998 24-415): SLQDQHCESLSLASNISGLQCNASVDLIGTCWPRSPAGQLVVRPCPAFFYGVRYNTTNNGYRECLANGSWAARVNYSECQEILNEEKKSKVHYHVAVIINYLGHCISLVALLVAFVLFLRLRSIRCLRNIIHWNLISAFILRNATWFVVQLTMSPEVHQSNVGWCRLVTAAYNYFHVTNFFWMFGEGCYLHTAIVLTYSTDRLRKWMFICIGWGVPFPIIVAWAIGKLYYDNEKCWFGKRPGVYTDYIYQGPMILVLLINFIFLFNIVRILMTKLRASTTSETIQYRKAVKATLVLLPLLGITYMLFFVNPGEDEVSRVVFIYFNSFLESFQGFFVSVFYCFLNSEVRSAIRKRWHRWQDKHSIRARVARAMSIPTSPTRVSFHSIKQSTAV
Briefly: Agarose lawn reporter assay, CHO-6xCRE-luc+ cells expressing CRH1 receptor. Particulars: approximately 10 nl of 5×10^−4 M to 1.5×10^−6 M peptide solution on lawn by HDR pin tool; 4 hours at 37° C.; FIGS. 7A-7B. The text has this: Chinese hamster ovary (CHO) cells were transfected with a 6xCRE-luciferase^+reporter gene. A stable host cell line was selected, into which cloned human receptors were transfected. Stable cell lines expressing these receptors were selected for screening purposes.
A reporter gene host cell line stably expressing a reporter construct comprising 6 cyclic AMP response elements (CREs) driving the expression of luciferase (6xCRE-luciferase^+) was generated as described by Goetz et al., (2000) J. Biomolec. Screening 5:377-384. […]
1.5 grams of LMP agarose were dissolved in 100 ml of assay medium (DMEM/F12 medium containing 2% glutamine) in a microwave oven. […] The cells were collected from suspension culture and were re-suspended in 60 ml of assay medium for determination of quantity of cells. […]
Solutions of peptides were then delivered to the lawn using a HDR 96-pin tool that delivers approximately 10 nanoliters (nl) of solution. […] Luminescence was detected using a VIEWLUX® camera.
Images were acquired by focusing luminescent light from the OMNI PLATE® tray, for 90 seconds, onto a CCD camera chip via a telecentric lens. […] The gray intensity was determined by scanning each grid unit to determine where the highest point in the region was located. […] The x and y co-ordinates were recorded to facilitate the production of graphical representations of the data.

T1 sequence (Q01726 whole entry): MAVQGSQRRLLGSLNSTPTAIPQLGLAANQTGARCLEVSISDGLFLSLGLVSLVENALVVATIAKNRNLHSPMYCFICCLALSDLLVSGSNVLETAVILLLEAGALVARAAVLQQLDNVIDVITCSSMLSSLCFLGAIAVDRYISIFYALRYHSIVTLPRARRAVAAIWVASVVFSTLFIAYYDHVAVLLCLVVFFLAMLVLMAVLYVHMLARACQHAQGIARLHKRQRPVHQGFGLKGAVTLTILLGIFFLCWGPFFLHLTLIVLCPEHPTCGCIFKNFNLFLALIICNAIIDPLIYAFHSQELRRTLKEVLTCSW

Regarding “Ac-NH-Ser-Val-dHis-dPhe-Arg-Trp [peptide 1]”, on MC1R [1], the “response value at plateau compared with maximal response to [NDP]-α-MSH” value was “well below the maximal response to [NDP]-α-MSH” and the “UV exposure time point at which response began to plateau” value turned out to be 3 min. Further, on MC1R [2], the “agonist character for MC1R” value is given as “full agonists”.
For “Ac-NH-Val-Ala-dHis-dPhe-Arg-Tyr [peptide 2]” the same measures were “well below the maximal response to [NDP]-α-MSH”, 3 min and “full agonists”.
Consider corticotrophin releasing factor [CRH], for which the “concentration-response curve of luminescence activity” value in experiment [3] is on record as “concentration-response curve of luminescence activity was only observed when peptide was applied to the cell line expressing the appropriate receptor”.
